Measurements published in patent US12649907B2, “Alternate detergents for viral inactivation” (AMGEN INC., priority 2019, dated 2026).

System: xMuLV
Format: cell-based, xenotropic murine leukemia virus
Settings: initial screen, 10× CMC or 10% w/v, 30 minutes, 15° C., 5% virus spike, PG4 cells
For `CCCCCCCCCCOCCOCCOCCOCCOCCOCCO` [Anapoe C10E6], the “Viral inactivation towards xMuLV (CPE)” value was “did not”.
For `CCCCCCCCCCOCCOCCOCCOCCOCCOCCOCCOCCOCCO` [Anapoe C10E9], the “Viral inactivation towards xMuLV (CPE)” value was “did not”.
With `CCCCCCCCCCCCOCCOCCOCCOCCOCCOCCOCCOCCOCCOCCO` [Anapoe C12E10] the “Viral inactivation towards xMuLV (CPE)” value was “did not”.
In the case of `CCCCCCCCCCCCCOCCOCCOCCOCCOCCOCCOCCOCCO` [Anapoe C13E8], the “Viral inactivation towards xMuLV (CPE)” value is reported as “did not”.

System: not given
Settings: as indicated by the Hampton Kit; cited from earlier work
For `CC(C)CC(CC(C)C)O[C@@H]1O[C@H](CO)[C@@H](O[C@H]2O[C@H](CO)[C@@H](O)[C@H](O)[C@H]2O)[C@H](O)[C@H]1O` [2,6-Dimethyl-4-heptyl-b-D-malto-pyranoside], the CMC is listed as 27.5 mM.
In the case of `O=C(CCC1CCCCC1)N(CCO)C[C@H](O)[C@@H](O)[C@H](O)[C@H](O)CO` [C-HEGA ®-9], the CMC is given as 108 mM.
In the case of `O=C(CCCC1CCCCC1)N(CCO)CC(O)C(O)C(O)C(O)CO` (stereo not drawn) [C-HEGA ®-10], the CMC is listed as 35 mM.
In the case of `O=C(CCCCC1CCCCC1)N(CCO)CC(O)C(O)C(O)C(O)CO` (stereo not drawn) [C-HEGA ®-11], the CMC is given as 11.5 mM.
For `C[C@H](CCC(=O)NCCC[N+](C)(C)CC(O)CS(=O)(=O)[O-])[C@H]1CC[C@H]2[C@@H]3[C@H](O)C[C@@H]4C[C@H](O)CC[C@]4(C)[C@H]3C[C@H](O)[C@]12C` (stereo partly drawn) [CHAPSO], the CMC is listed as 8 mM.
For `C[C@H](CCC(=O)NCCC[N+](C)(C)CCCS(=O)(=O)[O-])[C@H]1CC[C@H]2[C@@H]3[C@H](O)C[C@@H]4C[C@H](O)CC[C@]4(C)[C@H]3C[C@H](O)[C@]12C` [CHAPS], the CMC is given as 8 mM.
In the case of `OC[C@H]1O[C@H](O[C@H]2[C@H](O)[C@@H](O)[C@H](OCCCC3CCCCC3)O[C@@H]2CO)[C@H](O)[C@@H](O)[C@@H]1O` [CYMAL ®-3, 3-Cyclohexyl-1-Propyl-β-D-Maltoside], the CMC is listed as 34.5 mM.
For `OC[C@H]1O[C@H](O[C@H]2[C@H](O)[C@@H](O)[C@H](OCCCCC3CCCCC3)O[C@@H]2CO)[C@H](O)[C@@H](O)[C@@H]1O` [CYMAL ®-4, 4-Cyclohexyl-1-Butyl-β-D-Maltoside], the CMC is given as 7.6 mM.
In the case of `OC[C@H]1O[C@H](O[C@H]2[C@H](O)[C@@H](O)[C@H](OCCCCCCC3CCCCC3)O[C@@H]2CO)[C@H](O)[C@@H](O)[C@@H]1O` [CYMAL ®-6, 6-cyclohexyl-1-hexyl-β-D-maltoside], the CMC is given as 0.56 mM.
In the case of `OC[C@H]1O[C@H](O[C@H]2[C@H](O)[C@@H](O)[C@H](OCCCCCCCC3CCCCC3)O[C@@H]2CO)[C@H](O)[C@@H](O)[C@@H]1O` [CYMAL ®-7, 7-cyclohexyl-l-heptyl-β-D-maltoside], the CMC is given as 0.19 mM.
For `CCCCCCCCCCCC[N+](C)(C)CCCC(=O)[O-]` [DDMAB], the CMC is given as 4.3 mM.
For `CCCCCCCCOCCOCCOCCOCCO` [Detergent C8E4], the CMC is listed as 8 mM.
In the case of `CCCCCCCCOCCOCCOCCOCCOCCO` [Detergent C8E5], the CMC is listed as 7.1 mM.
For `CCCCCCCCCCOP(=O)(O)OCCNC` [FOS-MEA ®-10], the CMC is given as 5.25 mM.
In the case of `CCCCCCCNC(=O)OC[C@H]1O[C@H](OC)[C@H](O)[C@@H](O)[C@@H]1O` [HECAMEG ®], the CMC is given as 19.5 mM.
In the case of `CCCCCCCC(=O)N(CCO)C[C@H](O)[C@@H](O)[C@H](O)[C@H](O)CO` [HEGA ®-8], the CMC is listed as 109 mM.
For `CCCCCCCCC(=O)N(CCO)C[C@H](O)[C@@H](O)[C@H](O)[C@H](O)CO` [HEGA ®-9], the CMC is listed as 39 mM.
For `CCCCCCCCCC(=O)N(CCO)C[C@H](O)[C@@H](O)[C@H](O)[C@H](O)CO` [HEGA ®-10], the CMC is given as 7 mM.
In the case of `CCCCCCCCOCCOCCOCCOCCOCCOCCO` [Hexaethylene glycol monooctyl ether], the CMC is given as 10 mM.
For `CCCCCCCCCCCC(=O)OC[C@@H](O)COP(=O)([O-])OCC[N+](C)(C)C` [LysoFos ™ Choline 12], the CMC is listed as 0.7 mM.
For `CCCCCCCCCCCCCC(=O)OC[C@@H](O)COP(=O)([O-])OCC[N+](C)(C)C` [LysoFos ™ Choline 14], the CMC is listed as 0.036 mM.
For `CCCCCCCC(=O)N(C)C[C@H](O)[C@@H](O)[C@H](O)[C@H](O)CO` [MEGA-8], the CMC is given as 79 mM.
For `CCCCCCCCC(=O)N(C)C[C@H](O)[C@@H](O)[C@H](O)[C@H](O)CO` [MEGA-9], the CMC is listed as 25 mM.
For `CCCCCCCCCC(=O)N(C)C[C@H](O)[C@@H](O)[C@H](O)[C@H](O)CO` [MEGA-10], the CMC is given as 7 mM.
In the case of `CCCCCCCC[N+](C)(C)CCCS(=O)(=O)[O-]` [ZWITTERGENT ® 3-08], the CMC is listed as 330 mM.
For `CCCCCCCCCCO[C@@H]1O[C@H](CO)[C@@H](O[C@H]2O[C@H](CO)[C@@H](O)[C@H](O)[C@H]2O)[C@H](O)[C@H]1O` [n-Decyl-b-D-maltoside], the CMC is listed as 1.8 mM.
In the case of `CCCCCCCCCCCCO[C@@H]1O[C@H](CO)[C@@H](O[C@H]2O[C@H](CO)[C@@H](O)[C@H](O)[C@H]2O)[C@H](O)[C@H]1O` [n-Dodecyl-b-D-maltoside], the CMC is given as 0.17 mM.
In the case of `CCCCCCO[C@@H]1O[C@H](CO)[C@@H](O)[C@H](O)[C@H]1O` [n-Hexyl-b-D-glucopyranoside], the CMC is listed as 250 mM.
For `CCCCCCCCCO[C@@H]1O[C@H](CO)[C@@H](O)[C@H](O)[C@H]1O` [n-Nonyl-b-D-glucoside], the CMC is given as 6.5 mM.
In the case of `CCCCCCCCCO[C@@H]1O[C@H](CO)[C@@H](O[C@H]2O[C@H](CO)[C@@H](O)[C@H](O)[C@H]2O)[C@H](O)[C@H]1O` [n-Nonyl-b-D-maltoside], the CMC is listed as 6 mM.
In the case of `CCCCCCCCCS[C@@H]1O[C@H](CO)[C@@H](O[C@H]2O[C@H](CO)[C@@H](O)[C@H](O)[C@H]2O)[C@H](O)[C@H]1O` [n-Nonyl-b-D-thiomaltoside], the CMC is given as 3.2 mM.
For `CCCCCCCCO[C@@H]1O[C@H](CO)[C@@H](O)[C@H](O)[C@H]1O` [n-Octyl-b-D-glucoside], the CMC is listed as 20 mM.
In the case of `CCCCCCCCS[C@@H]1O[C@H](CO)[C@@H](O)[C@H](O)[C@H]1O` [n-Octyl-β-D-Thioglucoside], the CMC is given as 9 mM.
In the case of `CCCCCCCCS[C@@H]1O[C@H](CO)[C@@H](O[C@H]2O[C@H](CO)[C@@H](O)[C@H](O)[C@H]2O)[C@H](O)[C@H]1O` [n-Octyl-β-D-Thiomaltopyranoside], the CMC is listed as 8.8 mM.
For `CCCCCCCCCCCCCOC1OC(CO)C(OC2OC(CO)C(O)C(O)C2O)C(O)C1O` [n-Tridecyl-β-D-maltoside], the CMC is given as 0.033 mM.
In the case of `CCCCCCCCCCCO[C@@H]1O[C@H](CO)[C@@H](O[C@H]2O[C@H](CO)[C@@H](O)[C@H](O)[C@H]2O)[C@H](O)[C@H]1O` [n-Undecyl-b-D-maltoside], the CMC is listed as 0.59 mM.
In the case of Sucrose monolaurate, the CMC is listed as 0.3 mM.
In the case of n-Decanoylsucrose, the CMC is given as 2.5 mM.
